Measurements from patent US8404646B2, “Methods for preventing or treating mitochondrial permeability transition” (Cornell Research Foundation, Inc., priority 2003, dated 2013).
Entries after “also recorded” stand apart in the source; their conditions may differ.

Legend:
Caco-2 = assay: Cellular uptake of [3H][Dmt1]DALDA into cell monolayers; format: cell-based, human
Description: (§1) The cellular uptake of [^3H][Dmt^1]DALDA was studied using a human intestinal epithelial cell line (Caco-2), and confirmed with SH-SY5Y (human neuroblastoma cell), HEK293 (human embryonic kidney cell) and CRFK cells (kidney epithelial cell). Monolayers of cells were grown on 12-well plates (5×10^5 cells/well) coated with collagen for 3 days. On day 4, cells were washed twice with pre-wanned HBSS, and then incubated with 0.2 ml of HBSS containing either 250 nM [^3H][Dmt^1]DALDA at 37° C. or 4° C. for various times up to 1 h.
In a separate experiment, cells were incubated with a range of [Dmt^1]DALDA concentrations (1 μM-3 mM) for 1 h at 37° C. At the end of the incubation period, cells were washed 4 times with HBSS, and 0.2 ml of 0.1N NaOH with 1% SDS was added to each well. The cell contents were then transferred to scintillation vials and radioactivity counted. To distinguish between internalized radioactivity from surface-associated radioactivity, an acid-wash step was included. Prior to cell lysis, cells were incubated with 0.2 ml of 0.2 M acetic acid/0.05 M NaCl for 5 min on ice.

HEK293 = assay: Cellular uptake of [3H][Dmt1]DALDA, confirmation; format: cell-based, human
Description: as §1

SH-SY5Y = assay: Cellular uptake of [3H][Dmt1]DALDA, confirmation; format: cell-based, human
Description: as §1

CRFK cells = assay: Cellular uptake of [3H][Dmt1]DALDA, confirmation; format: cell-based
Description: as §1

[1] = system: isolated mouse liver mitochondria; assay: Uptake into isolated mitochondria (fluorescence quenching, radioactivity in pellet); format: in vitro ADME
Description: (FIG. 1A) Mitochondrial uptake of SS-19 was determined using fluorescence spectrophotometry (ex/em=320/420 nm). […] Pretreatment of mitochondria with FCCP (1.5 μM) reduced quenching by <20% (black line). […] Uptake was stopped by centrifugation (16000×g) for 5 min at 4° C., and radioactivity determined in the pellet. […] Data are shown as mean±s.e.; n=3. *, P<0.05 by Student's t-test. […] Black line, TMRM; red line, SS-19.
To isolate mitochondria from mouse liver, mice were sacrificed by decapitation. The liver was removed and rapidly placed into chilled liver homogenization medium. The liver was finely minced using scissors and then homogenized by hand using a glass homogenizer.
The homogenate was centrifuged for 10 min at 1000×g at 4° C. The supernatant was aspirated and transferred to polycarbonate tubes and centrifuged again for 10 min. at 3000×g, 4° C. The resulting supernatant was removed, and the fatty lipids on the side-wall of the tube were carefully wiped off.
The pellet was resuspended in liver homogenate medium and the homogenization repeated twice. The final purified mitochondrial pellet was resuspended in medium. Protein concentration in the mitochondrial preparation was determined by the Bradford procedure.
Approximately 1.5 mg mitochondria in 400 μl buffer was incubated with [^3H][Dmt^1]DALDA for 5-30 min at 37° C. The mitochondria were then centrifuged down and the amount of radioactivity determined in the mitochondrial fraction and buffer fraction. […] Thus [Dmt^1]DALDA is concentrated in mitochondria.
Thus uptake of [Dmt^1, AtnDap^4]DALDA was not potential-dependent.
To confirm that the mitochondrial targeting was not an artifact of the fluorophore, we also examined mitochondrial uptake of [^3H][Dmt^1]DALDA. Isolated mitochondria were incubated with [^3H][Dmt^1]DALDA and radioactivity determined in the mitochondrial pellet and supernatant.
We next examined the effect of mitochondrial swelling on the accumulation of [Dmt^1, AtnDap^4]DALDA in mitochondria by using alamethicin to induce swelling and rupture of the outer membrane. […] Thus, [Dmt^1]DALDA is associated with mitochondrial membranes.

[2] = Estimated concentration in isolated perfused guinea pig hearts; conditions: coronary perfusate 0.1 μM
[3] = system: isolated mouse liver mitochondria; assay: Mitochondrial respiration (oxygen consumption); format: biochemical; conditions: 100 μM
[4] = system: mitochondrial permeability transition (MPT) in isolated mitochondria; assay: Mitochondrial membrane potential and MPT measured with TMRM; format: biochemical, mouse; conditions: for mitochondrial potential / MPT on addition of peptide alone: 200 μM, TMRM; for tolerance of mitochondria to cumulative Ca2+ additions prior to MPT: 50 and 100 μM
Description: In addition to having no direct effect on mitochondrial potential, [Dmt^1]DALDA was able to protect against MPT induced by Ca^2+ overload.
3-Nitropropionic acid (3NP) is an irreversible inhibitor of succinate dehydrogenase in complex II of the electron transport chain. Addition of 3NP (1 mM) to isolated mitochondria caused dissipation of mitochondrial potential and onset of MPT (FIG. 2C).

Caco-2 cells = assay: 3NP-induced mitochondrial depolarization in cells (TMRM, LSCM); format: cell-based, human; conditions: 3NP 10 mM, peptide 0.1 μM, 4 h
Description: In control cells, the mitochondria are clearly visualized as fine streaks throughout the cytoplasm.

isolated mitochondria [5] = assay: Mitochondrial swelling (absorbance 540 nm or light scattering 570 nm); format: biochemical, mouse
Description: (§2) MPT pore opening results in mitochondrial swelling. We examined the effects of [Dmt^1]DALDA on mitochondrial swelling by measuring reduction in absorbance at 540 nm (A540). The mitochondrial suspension was then centrifuged and cytochrome c in the mitochondrial pellet and supernatant determined by a commercially-available ELISA kit.
(§3) The methods for study are as described above for SS-02. In this example, mitochondrial swelling was measured using light scattering monitored at 570 nm.

isolated mitochondria [6] = assay: Cytochrome c release from isolated mitochondria (ELISA); format: biochemical, mouse; conditions: Ca2+ overload
Description: as §2, §3

[7] = system: isolated perfused guinea pig heart; assay: Ischemia-reperfusion myocardial stunning in isolated perfused heart (Langendorff); conditions: 100 nM, 30 min global ischemia
Description: Guinea pig hearts were rapidly isolated, and the aorta was cannulated in situ and perfused in a retrograde fashion with an oxygenated Krebs-Henseleit solution (pH 7.4) at 34° C. The heart was then excised, mounted on a modified Langendorff perfusion apparatus, and perfused at constant pressure (40 cm H2O). Contractile force was measured with a small hook inserted into the apex of the left ventricle and the silk ligature tightly connected to a force-displacement transducer. Coronary flow was measured by timed collection of pulmonary artery effluent.
Reperfusion was carried out with the same solution used prior to ischemia.

[8] = system: isolated guinea pig hearts; assay: Organ preservation: peptide in cardioplegic solution, prolonged ischemia of isolated heart; conditions: in St. Thomas cardioplegic solution 3 min, 90 min ischemia, 60 min reperfusion; listed as [Dmt^1]DALDA
Description: We examined whether [Dmt^1]DALDA prolongs survival of organs. In this study, [Dmt^1]DALDA was added to a commonly used cardioplegic solution (St. Thomas) to determine whether [[Dmt^1]DALDA enhances survival of the heart after prolonged ischemia (model of ex vivo organ survival).
Isolated guinea pig hearts were perfused in a retrograde fashion with an oxygenated Krebs-Henseleit solution at 34° C. After 30 min. of stabilization, the hearts were perfused with a cardioplegic solution CPS (St. Tohomas) with or without [Dmt^1]DALDA at 100 nM for 3 min. Global ischemia was then induced by complete interruption of coronary perfusion for 90 min. Reperfusion was subsequently carried out for 60 min. with oxygenated Krebs-Henseleit solution. Contractile force, heart rate and coronary flow were monitored continuously throughout the experiment.

[9] = system: several mammalian cell types; conditions: energy-independent manner; cited from earlier work

Substance: 2′,6′-dimethyltyrosine-D-Arg-Phe-Lys-NH2 [SS-02]
- time at which [3H][Dmt1]DALDA was first observed in cell lysate (Caco-2; 250 nM, Caco-2): 5 min
- time to steady state levels in cell lysate (Caco-2; 250 nM, Caco-2): ≤ 30 min
- total amount recovered in the cell lysate, of the total drug (Caco-2; after 1 h incubation): about 1%
- uptake at 4° C. compared to 37° C. (Caco-2; by 45 min): 76.5%
- uptake at 4° C. compared to 37° C. (Caco-2; by 1 h): 86.3%
- internalization (HEK293): observed
- internalization (SH-SY5Y): observed
- internalization (CRFK cells): observed
- decrease of radioactivity associated with mitochondrial pellet by FCCP ([1]; 37° C., 2 min): ~20%
- amount of radioactivity in the pellet over time ([1]; from 2 min to 8 min): did not change
- Concentration of [Dmt1]DALDA in mitochondria [2]: 1000 µM
- Concentration of [Dmt1]DALDA in myocyte [2]: 5 µM
- oxygen consumption during state 3 or state 4 [3]: did not alter
- mitochondrial potential / MPT on addition of peptide alone [4]: did not alter mitochondrial potential
- mitochondrial potential / MPT on addition of peptide alone ([4]; listed as [Dmt^1]DALDA): did not cause mitochondrial depolarization or MPT
- onset of MPT induced by 3NP ([4]; 1 mM 3NP, 0.5, 5, 50 μM peptide): dose-dependently delayed
- tolerance of mitochondria to cumulative Ca2+ additions prior to MPT [4]: increased mitochondrial tolerance
- tolerance of mitochondria to cumulative Ca2+ additions prior to MPT ([4]; listed as [Dmt^1]DALDA): dose-dependently increased
- MPT induced by Ca2+ overload ([4]; pretreatment 10 μM): prevented onset of MPT
- mitochondrial depolarization caused by 3NP in cells (Caco-2 cells): protected against mitochondrial depolarization
- mitochondrial swelling induced by Ca2+ (isolated mitochondria [5]; 200 μM Ca2+, absorbance at 540 nm): inhibited swelling; also recorded: dose dependently inhibited
- mitochondrial swelling induced by MPP+ (isolated mitochondria [5]; MPP+ 300 μM): prevented mitochondrial swelling; also recorded: inhibited mitochondrial swelling
- Ca2+-induced release of cytochrome c (isolated mitochondria [6]): inhibited
- myocardial contractile force during ischemia-reperfusion [7]: tolerated ischemia much better than buffer-treated hearts; also recorded: protects myocardial contractile force
- contractile function after prolonged ischemia [8]: significantly enhanced; also recorded: significantly improved
- penetration of the plasma membrane [9]: readily penetrates the plasma membrane
